Assay [1] addresses indoleamine 2,3-dioxygenase (IDO) in Hela cells (Homo sapiens (Human), UniProt P14902). Nature of the assay: IDO intracellular activity inhibition testing in Hela cells induced by IFN-γ (Ehrlich method). Type of assay: cell-based. The conditions noted are these: 24 hours, OD490, 8 concentration points. How it is done:
IDO Intracellular Activity Inhibition Testing
The effects of the compounds of the invention on the activity of indoleamine 2,3-dioxygenase (IDO) in Hela cells induced by IFN-γ were evaluated by the Ehrlich method.
The experimental principle is summarized as follows: IDO expression is low in Hela cells under no induction, but a certain concentration of IFN-γ can induces Hela cells to express IDO which catalyzes the conversion of tryptophan to N-formyl kynurenine, which in turn is hydrolyzed by trichloroacetic acid to give kynurenine. Kynurenine then reacts with the Ehrlich reagent to give a color enabling detection of the IDO activity. The absorbance at 490 nm (OD490) is directly proportional to the IDO activity.
A compound was dissolved in DMSO (Sigma, Cat. No. D5879) and diluted to 5 mM, then serially diluted 3-fold with DMSO to a minimum concentration of 2.29 μM, and each concentration point was diluted 50-fold with FBS-free DMEM medium (ThermoFisher, Cat. No. 11995073). If a compound's IC50 value is very low, the initial concentration of the compound was lowered.
Hela cells (ATCC, Cat. No. CCL-2) were cultured in DMEM complete medium containing 10% FBS (GBICO, Cat. No. 10099-141) and 100 U/mL streptomycin mixture (ThermoFisher, Cat. No. 15140122). When covering the culture vessel 80-90%, the cells were digested with 0.25% trypsin (containing EDTA) (ThermoFisher, Cat. No. 25200056) and planted in 96-well plates (Corning, Cat. No. 3599), 20000 cells per well (80 μL of DMEM medium). The plates were then incubated in a 37° C., 5% CO2 incubator overnight (18-20 hours).
After overnight, 10 μL of DMEM-diluted compound and 10 μL of 500 ng/mL of INF-γ were added to each well, and gently mixed and the 96-well plates were placed in a 37° C., 5% CO2 incubator for further culturing. After 24 hours, they were removed and centrifuged at room temperature 2000×g for 5 min, and then the supernatants were transferred to reaction plates (Sigma, Cat. No. CLS3695). One-twentieth of trichloroacetic acid (Sigma, Cat. No. T9159) was added and incubated at 60° C. After 30 min, the reaction plates were centrifuged at room temperature 2000×g for 5 min. The supernatants were transferred to clean reaction plates, an equal volume of the Ehrlich reagent was added, mixed, and incubated at room temperature. After 15 min, OD490 of each well was measured.
In this experiment, OD490 without IFN-γ but with DMEM medium replacement was referred as OD490100% inhibition. OD490 with IFN-γ and 0.2% DMSO was referred as OD4900% inhibition. The percentage of inhibition on the IDO1 activity in Hela cells by a compound was calculated using the following formula: Inhibition %=100−100*(OD490compound−OD490100% inhibition)/(OD4900% inhibition−OD490100% inhibition)
(§1) Where Y is the percentage of inhibition, Bottom is the bottom platform value of the S-curve, Top is the top platform value of the S-curve, X is the logarithm of the concentration of the test compound, and slope factor is the slope coefficient of the curve.

Assay [2] deals with full-length human recombinant IDO1 protein (Homo sapiens (Human), UniProt P14902). Nature of the assay: IDO enzyme activity inhibition testing (Ehrlich method). Type of assay: biochemical. As to conditions: OD490, 10 concentration points. The procedure:
IDO Enzyme Activity Inhibition Testing
The effects of the compounds of the invention on the activity of indoleamine 2,3-dioxygenase (IDO) were evaluated by the Ehrlich method.
The experimental principle is summarized as follows: IDO1 catalyzes oxidation of tryptophan to form N-formyl kynurenine, N-formyl kynurenine is subsequently hydrolyzed by trichloroacetic acid to form kynurenine, and kynurenine further reacts with the Ehrlich reagent to make the solution yellow. The absorbance at 490 nm (OD490) is directly proportional to the activity of IDO1.
The experimental methods are summarized as follows:
The reaction buffer was 50 mM 2-(N-morpholine)ethanesulfonic acid-hydrate (Sigma, Cat. No. 69889); the full-length human recombinant IDO1 protein was purchased from the Tsinghua Protein Research Technology Center and diluted to a 33.6 ng/μL enzyme solution with the reaction buffer; the substrate solution was prepared with the reaction buffer containing 20 mM vitamin C (Sigma, Cat. No. A5960), 150 μM L-tryptophan (Sigma, Cat. No. T0254), 2250 UI/mL catalase (Sigma, Cat. No. C30), and 10 μM methylene blue (Sigma, Cat. No. 28514); the reaction termination solution was 30% (mass/volume) trichloroacetic acid (Sigma, Cat. No. T9159) aqueous solution; the Ehrlich reagent was 2% p-dimethylaminobenzaldehyde (Sigma, Cat. No. 156477) acetic acid (Macklin, Cat. No. A801295) solution.
A compound was dissolved in DMSO (Sigma, Cat. No. D5879) and diluted to 1 mM, then serially diluted 3-fold with DMSO to a minimum concentration of 50.8 nM, and each concentration was further diluted 25-fold with the reaction buffer. If a compound's IC50 value was very low, the initial concentration of the compound was decreased.
A 10-μL compound solution and a 10-μL enzyme solution were added to a 96-well plate (Sigma, Cat. No. CLS3695), mixed well and incubated at room temperature. After 15 min, a 20-μL substrate solution was added and incubated at 60° C. after mixing for 30 min. The reaction plate was equilibrated to room temperature and 60 μL of the Ehrlich reagent was added. After incubation for 15 min, OD490 of each well was measured.
In this experiment, OD490 without enzyme was referred as OD490100% inhibition, and OD490 with enzyme added but without compound was referred as OD4900% inhibition.
as §1

The test system of another assay is CT26 tumors. The conditions noted are these: repeated doses; cited from earlier work.
The next assay addresses plasma IDO1 (Mus musculus (Mouse), UniProt P28776). As to conditions: nude mice, single dose; at the level of IDO-deficient mice; cited from earlier work.

Molecules are shown by their SMILES.

indoleamine 2,3-dioxygenase (IDO) in Hela cells, sequence (P14902 whole entry): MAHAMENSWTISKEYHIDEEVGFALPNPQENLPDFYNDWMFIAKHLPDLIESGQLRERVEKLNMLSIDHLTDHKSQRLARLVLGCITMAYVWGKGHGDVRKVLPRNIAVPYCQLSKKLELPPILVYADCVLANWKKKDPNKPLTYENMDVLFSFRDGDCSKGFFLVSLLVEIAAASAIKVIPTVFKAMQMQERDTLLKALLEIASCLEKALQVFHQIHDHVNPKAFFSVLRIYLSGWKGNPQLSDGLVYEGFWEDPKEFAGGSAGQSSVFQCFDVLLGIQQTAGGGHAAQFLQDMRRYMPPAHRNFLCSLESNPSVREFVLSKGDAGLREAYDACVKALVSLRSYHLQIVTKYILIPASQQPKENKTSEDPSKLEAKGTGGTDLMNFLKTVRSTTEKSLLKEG
full-length human recombinant IDO1 protein, sequence (P14902 whole entry): as above
plasma IDO1, sequence (P28776 whole entry): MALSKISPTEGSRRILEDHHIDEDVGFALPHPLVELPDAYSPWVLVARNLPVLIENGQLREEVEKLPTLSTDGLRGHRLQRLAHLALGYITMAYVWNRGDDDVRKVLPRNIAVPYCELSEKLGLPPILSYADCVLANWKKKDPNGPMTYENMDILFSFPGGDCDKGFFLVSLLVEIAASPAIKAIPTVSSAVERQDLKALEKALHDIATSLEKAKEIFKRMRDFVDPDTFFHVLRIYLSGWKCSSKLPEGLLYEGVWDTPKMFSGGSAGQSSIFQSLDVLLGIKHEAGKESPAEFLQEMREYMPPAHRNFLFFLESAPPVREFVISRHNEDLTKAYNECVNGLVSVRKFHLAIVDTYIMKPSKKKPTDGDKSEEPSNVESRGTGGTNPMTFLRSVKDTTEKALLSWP

For the molecule `N#Cc1ccc(NC(=O)Nc2c(-c3ccccc3)ccc3cncn23)cc1` [Compound 17, 1-(4-cyanophenyl)-3-(6-phenylimidazo[1,5-a]pyridin-5-yl)urea], the IC50 in assay [1] is less than 1000 nM; in assay [2] it was less than 250 nM.

On to `N#Cc1ccc(NC(=O)Nc2c(Cl)ccc3cncn23)cc1` [Compound 19, 1-(6-chloroimidazo[1,5-a]pyridin-5-yl)-3-(4-cyanophenyl)urea], for which the IC50 in assay [1] is 1000 to 10000 nM; in assay [2], less than 250 nM.

Regarding `N#Cc1ccc(NC(=O)Nc2c(-c3ccc(F)cc3)ccc3cncn23)cc1` [Compound 21, 1-(4-cyanophenyl)-3-(6-(4-fluorophenyl)imidazo[1,5-a]pyridin-5-yl)urea], the IC50 is 1000 to 10000 nM in assay [1] and 250 to 1500 nM in assay [2].

For `N#Cc1ccc(NC(=O)Nc2c(-c3cccc(F)c3)ccc3cncn23)cc1` [Compound 22, 1-(4-cyanophenyl)-3-(6-(3-fluorophenyl)imidazo[1,5-a]pyridin-5-yl)urea], the IC50 is less than 1000 nM in assay [1] and less than 250 nM in assay [2].

With `N#Cc1ccc(NC(=O)Nc2c(-c3ccccc3F)ccc3cncn23)cc1` [Compound 23, 1-(4-cyanophenyl)-3-(6-(2-fluorophenyl)imidazo[1,5-a]pyridin-5-yl)urea], the half-maximal inhibitory concentration (IC50) in assay [1] was less than 1000 nM; in assay [2], less than 250 nM.

For the molecule `N#Cc1ccc(NC(=O)Nc2c(C3=CCCC3)ccc3cncn23)cc1` [Compound 24, 1-(4-cyanophenyl)-3-(6-(cyclopent-1-en-1-yl)imidazo[1,5-a]pyridin-5-yl)urea], the 50% inhibitory concentration (IC50) in assay [1] is 1000 to 10000 nM; in assay [2] it was less than 250 nM.

The molecule `N#CC1CCC(NC(=O)Nc2c(-c3ccccc3)ccc3cncn23)CC1` (stereo not shown) [Compound 36, 1-(4-cyanocyclohexyl)-3-(6-phenylimidazo[1,5-a]pyridin-5-yl)urea] yielded an IC50 in assay [1] of less than 1000 nM.

`N#Cc1ccc(NC(=O)Cc2c(-c3ccccc3)ccc3cncn23)cc1` [Compound 37, N-(4-cyanophenyl)-2-(6-phenylimidazo[1,5-a]pyridin-5-yl)acetamide]: the half-maximal inhibitory concentration (IC50) is less than 1000 nM in assay [1] and less than 250 nM in assay [2].

For the molecule `O=C(Cc1c(-c2ccccc2)ccc2cncn12)Nc1ccc(C(=O)N2CCOCC2)cc1` [Compound 47, N-(4-(morpholine-4-carbonyl)phenyl)-2-(6-phenylimidazo[1,5-a]pyridin-5-yl)acetamide], the IC50 in assay [2] was less than 250 nM.

Take `COC1CCN(C(=O)c2ccc(NC(=O)Cc3c(-c4ccccc4)ccc4cncn34)cc2)CC1` [Compound 48, N-(4-(4-methoxypiperidine-1-carbonyl)phenyl)-2-(6-phenylimidazo[1,5-a]pyridin-5-yl)acetamide]: the IC50 in assay [2] was less than 250 nM.

Regarding `O=C(Cc1c(-c2ccccc2)ccc2cncn12)Nc1ccc(C(=O)NCCN2CCOCC2)cc1` [Compound 49, N-(2-morpholinoethyl)-4-(2-(6-phenylimidazo[1,5-a]pyridin-5-yl)acetamido)benzamide], the IC50 was less than 1000 nM in assay [1] and less than 250 nM in assay [2].

`O=C(Cc1c(-c2ccccc2)ccc2cncn12)Nc1ccc(C(=O)NCCCN2CCOCC2)cc1` [Compound 50, N-(3-morpholinopropyl)-4-(2-(6-phenylimidazo[1,5-a]pyridin-5-yl)acetamido)benzamide]: the IC50 in assay [1] is less than 1000 nM; in assay [2], less than 250 nM.

For `O=C(Cc1c(-c2ccccc2)ccc2cncn12)Nc1ccc(-c2cn[nH]c2)cc1` [Compound 51, N-(4-(1H-pyrazol-4-yl)phenyl)-2-(6-phenylimidazo[1,5-a]pyridin-5-yl)acetamide], the IC50 in assay [1] is less than 1000 nM; in assay [2], less than 250 nM.

Take `COCCn1cc(-c2ccc(NC(=O)Cc3c(-c4ccccc4)ccc4cncn34)cc2)cn1` [Compound 52, N-(4-(1-(2-methoxyethyl)-1H-pyrazol-4-yl)phenyl)-2-(6-phenylimidazo[1,5-a]pyridin-5-yl)acetamide]: the IC50 in assay [2] was less than 250 nM.

For the molecule `O=C(Cc1c(-c2ccccc2)ccc2cncn12)Nc1cc[nH]n1` [Compound 53, 2-(6-phenylimidazo[1,5-a]pyridin-5-yl)-N-(1H-pyrazol-3-yl)acetamide], the IC50 is 1000 to 10000 nM in assay [1] and less than 250 nM in assay [2].

Take `O=C(Cc1c(-c2ccccc2)ccc2cncn12)Nc1cn[nH]c1` [Compound 54, 2-(6-phenylimidazo[1,5-a]pyridin-5-yl)-N-(1H-pyrazol-4-yl)acetamide]: the IC50 in assay [1] lay in the range of 1000 to 10000 nM; in assay [2], 250 to 1500 nM.

For `CN(Cc1ccc(C#N)cc1)Cc1c(-c2ccccc2)ccc2cncn12` [Compound 55, 4-((methyl((6-phenylimidazo[1,5-a]pyridin-5-yl)methyl)amino)methyl)benzonitrile], the IC50 in assay [2] was 250 to 1500 nM.

With `c1ccc(CNCc2c(-c3ccccc3)ccc3cncn23)cc1` [Compound 58, N-benzyl-1-(6-phenylimidazo[1,5-a]pyridin-5-yl)methanamine], in assay [2], the IC50 fell in the range of 250 to 1500 nM.

Consider `c1ccc(-c2ccc3cncn3c2CNCC2CCCCC2)cc1` [Compound 59, 1-cyclohexyl-N-((6-phenylimidazo[1,5-a]pyridin-5-yl)methyl)methanamine], for which the IC50 in assay [2] lay within 250 to 1500 nM.

Consider `CC(C)CNCc1c(-c2ccccc2)ccc2cncn12` [Compound 61, 2-methyl-N-((6-phenylimidazo[1,5-a]pyridin-5-yl)methyl)propan-1-amine], for which, in assay [2], the IC50 was 250 to 1500 nM.

Consider `CC(C)(O)CNCc1c(-c2ccccc2)ccc2cncn12` [Compound 62, 2-methyl-1-(((6-phenylimidazo[1,5-a]pyridin-5-yl)methyl)amino)propan-2-ol], for which the IC50 in assay [2] was less than 250 nM.

In the case of `N#Cc1ccc(NC(=O)Cc2cc(Cl)cc3[nH]ncc23)cc1` [Compound 63, 2-(6-chloro-1H-indazol-4-yl)-N-(4-cyanophenyl)acetamide], in assay [2], the half-inhibitory concentration (IC50) fell in the range of 250 to 1500 nM.

In turn, `N#Cc1ccc(NC(=O)C(O)c2c(-c3ccccc3)ccc3cncn23)cc1` (stereo not shown) [Compound 64, N-(4-cyanophenyl)-2-hydroxy-2-(6-phenylimidazo[1,5-a]pyridin-5-yl)acetamide] returned an IC50 in assay [1] of less than 1000 nM.

Regarding `NS(=O)(=O)NCCNc1nonc1C(=NO)Nc1ccc(F)c(Br)c1` [INCB-024360], the “expansion of CT26 tumors” value in the assay on CT26 tumors was “prevented the expansion of CT26 tumors”. The “activity of plasma IDO1” value at plasma IDO1 is on record as “effectively inhibit the activity of plasma IDO1”.

The values above are taken from patent publication US11046682B2, “Fused heterocyclic derivatives, their preparation methods thereof and medical uses thereof” (Beijing Innocare Pharma Tech Co., Ltd., priority 2016, dated 2021).
